PubChem BioAssay AID1159558 (GlaxoSmithKline (GSK), 2015)
Active and inactive are the calls of the source.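 How the source made its calls: active means IC50 against T. cruzi CYP51 below a set limit; inactive means the rest.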

Biological target: Sterol 14-alpha demethylase (Trypanosoma cruzi (strain CL Brener)) (UniProt Q7Z1V1)
Assay: TcCYP51 inhibitors, dose response, mechanism study for T. cruzi antiparasitic project, biochemical, recombinant enzyme (AID 1159558);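 further: enzyme in bacterial membranes with Anopheles gambiae CYP reductase and cytochrome b5 partners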
Settings: recombinant T. cruzi CYP51, BOMCC fluorescence

Sterol 14-alpha demethylase (Trypanosoma cruzi (strain CL Brener)), sequence (Q7Z1V1 whole entry, looked up): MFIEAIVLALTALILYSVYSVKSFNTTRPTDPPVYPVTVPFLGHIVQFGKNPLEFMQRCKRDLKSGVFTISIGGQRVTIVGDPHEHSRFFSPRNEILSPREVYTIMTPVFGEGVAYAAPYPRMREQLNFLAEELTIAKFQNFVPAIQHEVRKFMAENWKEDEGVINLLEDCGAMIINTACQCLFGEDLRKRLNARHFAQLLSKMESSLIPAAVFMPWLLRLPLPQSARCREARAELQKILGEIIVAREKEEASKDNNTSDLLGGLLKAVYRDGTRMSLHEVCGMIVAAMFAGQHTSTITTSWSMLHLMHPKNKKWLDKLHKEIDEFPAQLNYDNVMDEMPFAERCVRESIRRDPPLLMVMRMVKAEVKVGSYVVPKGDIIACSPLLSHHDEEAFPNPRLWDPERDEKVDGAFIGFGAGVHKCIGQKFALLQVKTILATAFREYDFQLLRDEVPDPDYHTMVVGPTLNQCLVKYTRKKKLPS

SMILES | IC50
COc1cc(OC)cc(C(=O)N[C@@H](CC(C)C)C(=O)NC2(C#N)CC2)c1 | > 100 µM (inactive)
CCCN(Cc1ccc(OC)c(OC)c1)Cc1cc(=O)c2c(C)cc(C)cc2[nH]1 | > 100 µM (inactive)
CC(c1cc(Cl)cc(Cl)c1)N(C)c1ncc2c(N)nc(N)nc2n1 (centres undefined) | 40 µM
C[C@@H](Oc1cc(-n2cnc3ccc(CC(O)CO)cc32)sc1C(N)=O)c1ccccc1Cl (some centres undefined) | 25 µM
O=C(CSc1nnc(-c2ccc3c(c2)OCO3)o1)N(Cc1ccco1)CC(F)(F)F | 25 µM
O=c1ccn(-c2ccc([N+](=O)[O-])cc2Cl)c2ccc(F)cc12 | 16 µM
CS(=O)(=O)N1CCC(Nc2ncc(Br)c(Nc3cccc(F)c3C(N)=O)n2)CC1 | > 100 µM (inactive)
CN(Cc1ccc(F)cc1)c1ccc(OCC(=O)N2CCCCC2c2cccnc2)nn1 (centres undefined) | 0.05 µM
O=C(c1cccc(Nc2ncc(-c3ccc4c(c3)OCO4)cn2)c1)N1CCSC1 | 16 µM
O=C(CN(Cc1ccccn1)Cc1ccccn1)NCc1csc(-c2cccs2)n1 | 40 µM
O=c1[nH]c(C=Cc2cccc(OCCOc3ccccc3)c2)nc(O)c1[N+](=O)[O-] | > 100 µM (inactive)
CNC(=O)C1Cc2ccccc2N1C(=O)COc1cccc(OC)c1 (centres undefined) | 100 µM
CN(Cc1nc2ccc(C(=O)NCC3CCCCC3)cc2[nH]1)C1CCCc2cccnc21 (centres undefined) | 40 µM
Fc1ccc(Nc2nc(-c3ccccn3)cs2)cc1 | 16 µM
CCc1cccc(-n2nc(OCC(=O)NC3CCCC3)c3cccnc32)c1 | > 100 µM (inactive)
Fc1ccccc1N1C[C@H]2CCN(c3cccnc3)C[C@H]2C1 | 0.063 µM
COc1cccc(C(=O)[C@H]2C[C@@H]2CN(Cc2ccccn2)Cc2ccccn2)c1 | 32 µM
Cc1ccccc1NS(=O)(=O)c1ccc2[nH]cc(C(=O)NC3CCCC3)c(=O)c2c1 | 13 µM
CCCCn1c(=O)c2c(N)onc2n(CCCC)c1=O | 79 µM
C[C@@H](Oc1cc(-n2cnc3ccc(O[C@H]4CCNC4)cc32)sc1C(N)=O)c1ccccc1Cl | 1.3 µM
O=C(Nc1n[nH]c(-c2ccccn2)n1)C1CC1c1ccccc1 (centres undefined) | > 100 µM (inactive)
COCCn1c(-c2ccc3c(c2)OCO3)cnc1NCc1ccccc1OC | 5 µM
Cc1cccnc1NC(=O)c1cccc(OCc2c(C)noc2C)c1 | 50 µM
O=C(Nc1ccc(S(=O)(=O)N2CCCC2)cc1)c1ccc([N+](=O)[O-])s1 | > 100 µM (inactive)
O=C(Cn1cnc2c(-c3ccccc3)csc2c1=O)N1CCCCC1 | 40 µM
O=C(CN1CCN(S(=O)(=O)c2cccc([N+](=O)[O-])c2)CC1)Nc1ccc(Oc2ccccc2)cc1 | 2.5 µM

SMILES | IC50
O=c1cc(NCCCNC2CCOc3c(I)cc(Cl)cc32)[nH]c2ccccc12 (centres undefined) | 16 µM
Nc1ncnc2c1ncn2[C@@H]1O[C@H](CO)C[C@H]1O | > 100 µM (inactive)
CCOc1ccc(N(C)S(=O)(=O)c2ccc3[nH]cc(C(=O)NC4CCCC4)c(=O)c3c2)cc1 | 6.3 µM
O=S(=O)(c1ccccc1C(F)(F)F)N1CCN(Cc2ccc(-n3ccnc3)cc2)CC1 | 0.1 µM
COc1ccc(S(=O)(=O)NC(C)C)cc1Nc1ncc(-c2cccc(F)c2)cn1 | > 100 µM (inactive)
Cc1cc2nc(CN(C)Cc3ncccc3C)[nH]c2cc1C | 79 µM
COc1cnc2ccc(=O)n(CCN3CCC(NC(=O)Cc4ccc(Cl)c(Cl)c4)CC3)c2c1 | 0.79 µM
Cc1nc(-c2ccncc2)ncc1C(C)NC(=O)c1ccc(Cl)s1 (centres undefined) | 0.79 µM
O=C(Nc1nc(-c2ccc(F)cc2)cs1)c1ccc([N+](=O)[O-])s1 | 50 µM
CCCCN(C(=O)c1ccc(NC(=O)C(C)C)cc1)c1ccccc1 | 13 µM
CC(C)n1c(-c2nonc2N)nc2cccc(OCCN3CCCC3)c21 | 40 µM
Cc1c(CNC(=O)c2ccc(Cn3cc(Cl)c([N+](=O)[O-])n3)cc2)cnn1C | > 100 µM (inactive)
O=C(CN(Cc1ccccn1)Cc1ccccn1)NC1Cc2ccccc2C1 | 79 µM
O=C(c1ccc(O)c(Cl)c1)N1CCN(c2cnccn2)CC1 | > 100 µM (inactive)
C=CCN(Cc1cccs1)C(=O)CSc1nnc(-c2ccc3c(c2)OCO3)o1 | 7.9 µM
COC(=O)c1ccc(-c2cnc3ccc(NCc4ccccn4)nn23)cc1 | 1.3 µM
COc1cc(C2SCC(=O)Nc3c2c(C)nn3-c2nc3ccccc3s2)cc(OC)c1O (centres undefined) | 5 µM
CCS(=O)(=O)Nc1ccc(C2=NN(C(=O)c3cccs3)C(c3ccccc3OC)C2)cc1 (centres undefined) | 25 µM
CN(Cc1cc2ccccc2s1)c1ncc2c(N)nc(N)nc2n1 | > 100 µM (inactive)
CC(=O)Nc1ccc(-c2noc(CC3CCCN(Cc4cccc(F)c4C)C3)n2)cc1 (centres undefined) | > 100 µM (inactive)
CCOc1cc(NCCCN2CCN(C)CC2)c2ncccc2c1 | > 100 µM (inactive)
O=[N+]([O-])c1ccc(C2=CC(c3ccccc3)=NCCN2)cc1 | 50 µM
COc1ccccc1CNc1cc(C2CC2)nc(-c2nccn2C)n1 | 20 µM
O=C(Nc1ccccc1C(=O)Nc1ccccn1)c1ccco1 | > 100 µM (inactive)
CCC(=O)Nc1ccccc1C(=O)Nc1ccccn1 | > 100 µM (inactive)
NC(=O)c1ncccc1Nc1nc(NC2CCC(O)CC2)ncc1Br (centres undefined) | > 100 µM (inactive)

SMILES | IC50
CN1C(=O)c2ccccc2Sc2ccc(NC(=O)NCc3ccco3)cc21 | 32 µM
Cc1cc2cc(CNc3ccc4c(c3)OCO4)c(=O)n(CCO)c2cc1C | 10 µM
CN(C)CCN(C)Cc1ccc(Cl)cc1NS(=O)(=O)c1ccc(Cl)c(Cl)c1 | 32 µM
O=C(CSc1ccc(F)cc1)N[C@@H](Cc1cnc[nH]1)C(=O)NCCc1ccccc1 | 0.079 µM
COc1ccc2nc(N(Cc3cccnc3)C(=O)C3CCC3)sc2c1 | 0.063 µM
Cc1cc(C)n(-c2nc(NC(C)C)nc(NC(C)(C)C)n2)n1 | > 100 µM (inactive)
Cc1cc(Br)sc1CNCCCNc1cc(=O)c2ccccc2[nH]1 | 63 µM
Cn1nccc1-c1cc(OC(CN)c2ccccc2)cnc1-c1ccco1 (centres undefined) | 0.063 µM
COc1cccc(-c2c(C)nn(-c3nc(N)nc(-c4ccccn4)n3)c2N)c1 | > 100 µM (inactive)
COc1ccc(Cl)cc1CC(=O)Nc1n[nH]c(-c2ccccn2)n1 | > 100 µM (inactive)
CCn1c(NC(=O)Cc2ccc(F)cc2)nc2ccccc21 | 25 µM
CN(Cc1ccc(C(N)=O)cc1)C(c1ccc(F)cc1)c1cccnc1 (centres undefined) | 0.1 µM
N#Cc1cccc(CN2CCC(c3nc(-c4ccc(C(F)(F)F)nc4)no3)CC2)c1 | > 100 µM (inactive)
O=C(NCCc1ccccn1)C(c1cn[nH]c1)N1CCN(c2ccc(Cl)c(Cl)c2)CC1 (centres undefined) | 0.13 µM
C=CCOCC1Cn2nc([N+](=O)[O-])nc2O1 (centres undefined) | > 100 µM (inactive)
Cc1cc(Nc2ccc(C#N)c(Cl)c2C)n[nH]1 | 40 µM
Cn1cncc1CN1CCC2(CC1)COC(Cc1ccccc1)C2 (centres undefined) | 1 µM
Cc1nn(-c2nc3ccccc3s2)c2c1C(c1ccc(OCC(N)=O)cc1)SCC(=O)N2 (centres undefined) | > 100 µM (inactive)
Oc1cccnc1-c1n[nH]c(Cc2ccccc2)n1 | > 100 µM (inactive)
CCC(CC)C(=O)Nc1ccc(-c2nnc(-c3ccc(OC)cc3)o2)cc1 | 13 µM
N#Cc1cc(-c2ccnc(Nc3cccc(CN4CCOCC4)c3)n2)ccc1NCCN | 32 µM
CCN(CC)c1nc(Nc2ccncc2)nc2ccccc12 | > 100 µM (inactive)
O=c1ccc2ccc(F)c3c2n1C[C@H]3CN1CCN(CC(O)c2cc3c(cn2)OCS3)CC1 (some centres undefined) | > 100 µM (inactive)
NCC(Cc1ccccc1)NC(=O)c1cnc(-c2c[nH]c3ncccc23)s1 (centres undefined) | 1 µM
CNc1cc(C)nc(C2CN(C(=O)c3n[nH]c4ccccc34)CCO2)c1 (centres undefined) | > 100 µM (inactive)
COc1cccc2sc(CN(C)C(=O)C3CNCCN3c3ccc(F)cc3)c(C)c12 (centres undefined) | 0.25 µM

SMILES | IC50
COc1ccc(NS(=O)(=O)c2cc(NC(=O)Cc3ccc(C)cc3)ccc2N2CCOCC2)cc1 | > 100 µM (inactive)
CCOc1ccc(CN(C)Cc2nc(N)nc(Nc3ccc(C)cc3)n2)cc1 | 16 µM
CNc1nc(C)nc(N2CCc3cc(C(=O)NCc4ccc(-c5ccn[nH]5)cc4Cl)ccc32)n1 | 5 µM
O=C(NCCc1csc(-c2ccc(F)cc2)n1)c1cccs1 | 25 µM
CS(=O)(=O)c1cccc(CNC(=O)c2cncc(N3CCN(c4ccc(F)cc4)CC3)c2)c1 | 13 µM
COc1ccc(C2CC(c3ccccc3Cl)=NN2C(=O)CNC(=O)C2CCC2)cc1 (centres undefined) | 50 µM
CN1CCCN(C(=O)c2ccc(N3CCCC3)cc2Cl)CC1 | > 100 µM (inactive)
COc1ccc2ncc(=O)n(CCN3CCOC(CNCc4ccc(C(F)(F)F)cc4F)C3)c2n1 (centres undefined) | 10 µM
COc1cnc2ccc(=O)n(CCN3CCC(NC/C=C/c4cc(F)ccc4F)CC3)c2c1 | 16 µM
O=C(CCc1ccc(-c2ccccc2)o1)N1CCN(c2ccc(O)cc2)CC1 | 2.5 µM
Cc1nccn1C1CCCN(C(=O)c2cc3c(F)cccc3s2)C1 (centres undefined) | 50 µM
O=C(NCCNc1noc(-c2ccc([N+](=O)[O-])cc2)n1)c1ccc(Cl)cc1 | > 100 µM (inactive)
COc1ccc(S(=O)(=O)Nc2ccccc2OC)cc1NC(=O)CCCc1c[nH]c2ccccc12 | > 100 µM (inactive)
COc1ccc2c(Cl)c(C(=O)N3CCC3)sc2c1Cl | > 100 µM (inactive)
O=[N+]([O-])c1ccc(-c2nnn(-c3cccnc3)n2)o1 | 4 µM
O=C(Cc1ccccc1)Nc1ccccc1C(=O)Nc1nccs1 | > 100 µM (inactive)
COc1ccc(C(=O)Nc2ccc(NC(=O)CO)cc2)cc1 | > 100 µM (inactive)
Cc1cccc(N2CCCN(Cc3c[nH]c4ccccc34)CC2)n1 | > 100 µM (inactive)
COc1ccc2ncc(Cl)c(CCN3CC[C@@H](NCc4cc5c(cn4)OCS5)[C@H](O)C3)c2n1 | 1 µM
CC(=O)NCCNc1cc(-c2ccnc(Nc3cccc(Cl)c3)n2)ccn1 | 5 µM
O=C(NCC1CCCCC1)c1cc(=O)c2ccccc2o1 | > 100 µM (inactive)
COc1cccc(Nc2cc(C)nc(-c3ccccn3)n2)c1 | > 100 µM (inactive)
CC(=Cc1ccccc1)CN1CCC(=O)N(Cc2cccnc2)CC1 | 0.1 µM
CNC(=O)C1Cc2ccccc2N1C(=O)Cc1ccccc1 (centres undefined) | > 100 µM (inactive)
COc1ccc(C(=O)Nc2c(C)nn(COc3cccc(C(F)(F)F)c3)c2C)cc1 | 13 µM
COc1ccc(C2CC(c3ccc(NS(C)(=O)=O)cc3)=NN2C(=O)c2cccs2)cc1OC (centres undefined) | 13 µM
